Measured values taken from ChEMBL document CHEMBL3885881, “DrugMatrix”.

Species on record: Rattus norvegicus
Experiment: DrugMatrix - Regimen: Daily Repeat
Assay type: toxicity, organism-based, Sprague-Dawley
Parameters: regimen Daily Repeat, gender Male, age 6-8 weeks
Conditions: in vivo, po, route oral GAVAGE, vehicle .5 % CMC; for BASOPHIL / EOSINOPHIL / ERYTHROCYTE COUNT / HEMATOCRIT / HEMOGLOBIN / LEUKOCYTE COUNT / LYMPHOCYTE / MEAN CORPUSCULAR HEMOGLOBIN / MEAN CORPUSCULAR HEMOGLOBIN CONCENTRATION / MEAN CORPUSCULAR VOLUME / MONOCYTE / NEUTROPHIL / PLATELET COUNT: tissue Blood; for ALANINE AMINOTRANSFERASE / ALBUMIN / ALKALINE PHOSPHATASE / ASPARTATE AMINOTRANSFERASE / BLOOD UREA NITROGEN / CHLORIDE / CHOLESTEROL / CREATINE PHOSPHOKINASE / CREATININE / GLUCOSE / PHOSPHORUS / POTASSIUM / SODIUM / TOTAL BILIRUBIN / TOTAL PROTEIN: tissue Plasma
[1] = 0 mg/kg, 72 h, dose level Control, time 3 day
[2] = 0 mg/kg, 120 h, dose level Control, time 5 day
[3] = 41 mg/kg, 72 h, dose level High, time 3 day

O=C1c2ccccc2C(=O)C1c1ccccc1 [PHENINDIONE]
BASOPHIL [1]: 0.68% | EOSINOPHIL [1]: 0.46% | ERYTHROCYTE COUNT [1]: 7.15 x10E6/uL | HEMATOCRIT [1]: 45.44% | HEMOGLOBIN [1]: 14.1 G/DL | LEUKOCYTE COUNT [1]: 9.78 x10E3/uL | LYMPHOCYTE [1]: 84.44% | MEAN CORPUSCULAR HEMOGLOBIN [1]: 19.72 pg | MEAN CORPUSCULAR HEMOGLOBIN CONCENTRATION [1]: 31 G/DL | MEAN CORPUSCULAR VOLUME [1]: 63.66 fL | MONOCYTE [1]: 2.14% | NEUTROPHIL [1]: 11.16% | PLATELET COUNT [1]: 1378.2 x10E3/uL | ALANINE AMINOTRANSFERASE [1]: 42.33 u/L | ALBUMIN [1]: 3.8 G/DL | ALKALINE PHOSPHATASE [1]: 388.17 u/L | ASPARTATE AMINOTRANSFERASE [1]: 68 u/L | BLOOD UREA NITROGEN [1]: 16.17 mg/dL | CHLORIDE [1]: 96.67 MEQ/L | CHOLESTEROL [1]: 71 mg/dL | CREATINE PHOSPHOKINASE [1]: 156.17 u/L | CREATININE [1]: 0.57 mg/dL | GLUCOSE [1]: 193.67 mg/dL | PHOSPHORUS [1]: 11.43 mg/dL | POTASSIUM [1]: 7 MEQ/L | SODIUM [1]: 140.33 MEQ/L | TOTAL BILIRUBIN [1]: 0.48 mg/dL | TOTAL PROTEIN [1]: 6.8 G/DL | BASOPHIL [2]: 1.47% | EOSINOPHIL [2]: 1% | ERYTHROCYTE COUNT [2]: 7.12 x10E6/uL | HEMATOCRIT [2]: 45.47% | HEMOGLOBIN [2]: 14.1 G/DL | LEUKOCYTE COUNT [2]: 11.38 x10E3/uL | LYMPHOCYTE [2]: 82.57% | MEAN CORPUSCULAR HEMOGLOBIN [2]: 19.82 pg | MEAN CORPUSCULAR HEMOGLOBIN CONCENTRATION [2]: 31.02 G/DL | MEAN CORPUSCULAR VOLUME [2]: 63.88 fL | MONOCYTE [2]: 2.2% | NEUTROPHIL [2]: 11.97% | PLATELET COUNT [2]: 1267 x10E3/uL | ALANINE AMINOTRANSFERASE [2]: 38 u/L | ALBUMIN [2]: 3.72 G/DL | ALKALINE PHOSPHATASE [2]: 391 u/L | ASPARTATE AMINOTRANSFERASE [2]: 65.83 u/L | BLOOD UREA NITROGEN [2]: 14.17 mg/dL | CHLORIDE [2]: 107.67 MEQ/L | CHOLESTEROL [2]: 61 mg/dL | CREATINE PHOSPHOKINASE [2]: 148.33 u/L | CREATININE [2]: 0.57 mg/dL | GLUCOSE [2]: 177.17 mg/dL | PHOSPHORUS [2]: 12.07 mg/dL | POTASSIUM [2]: 7.2 MEQ/L | SODIUM [2]: 151.5 MEQ/L | TOTAL BILIRUBIN [2]: 0.58 mg/dL | TOTAL PROTEIN [2]: 6.72 G/DL | BASOPHIL [3]: 0.3% | EOSINOPHIL [3]: 0.33% | ERYTHROCYTE COUNT [3]: 7.21 x10E6/uL | HEMATOCRIT [3]: 45.77% | HEMOGLOBIN [3]: 14.17 G/DL | LEUKOCYTE COUNT [3]: 11.97 x10E3/uL | LYMPHOCYTE [3]: 84.4% | MEAN CORPUSCULAR HEMOGLOBIN [3]: 19.77 pg | MEAN CORPUSCULAR HEMOGLOBIN CONCENTRATION [3]: 30.97 G/DL | MEAN CORPUSCULAR VOLUME [3]: 63.73 fL | MONOCYTE [3]: 2.13% | NEUTROPHIL [3]: 11.97% | PLATELET COUNT [3]: 1382.67 x10E3/uL | ALANINE AMINOTRANSFERASE [3]: 31.33 u/L | ALBUMIN [3]: 3.67 G/DL | ALKALINE PHOSPHATASE [3]: 276 u/L | ASPARTATE AMINOTRANSFERASE [3]: 57 u/L | BLOOD UREA NITROGEN [3]: 11 mg/dL | CHLORIDE [3]: 96 MEQ/L | CHOLESTEROL [3]: 75.33 mg/dL | CREATINE PHOSPHOKINASE [3]: 160 u/L | CREATININE [3]: 0.47 mg/dL | GLUCOSE [3]: 189.67 mg/dL | PHOSPHORUS [3]: 13.23 mg/dL | POTASSIUM [3]: 6.77 MEQ/L | SODIUM [3]: 140.67 MEQ/L | TOTAL BILIRUBIN [3]: 0.27 mg/dL
